Tested on: NHBE cells
Assay: Biolog metabolic array: substrate use by NHBE cells with or without CA09 infection
Type: cell-based, human
Conditions: for Substrate use, 590 nm absorbance normalized to zero hour, 1 hr: Biolog PMM2, 1 hr; for Substrate use, 590 nm absorbance normalized to zero hour, 5 hr: Biolog PMM2, 5 hr; for Substrate use, 590 nm absorbance normalized to zero hour, 7 hr: Biolog PMM2, 7 hr
[1] = Control (uninfected) NHBE cells
[2] = Virus (CA09-infected, MOI 1) NHBE cells
[3] = Virus: CA09-infected NHBE cells, MOI 1, Biolog PMM2
[4] = Virus (CA09, MOI 1) infected NHBE cells

Structure (SMILES)	590 nm absorbance normalized to zero hour (substrate use), 1 hr [1]	590 nm absorbance normalized to zero hour (substrate use), 2 hr [1]	590 nm absorbance normalized to zero hour (substrate use), 3 hr [1]	590 nm absorbance normalized to zero hour (substrate use), 4 hr [1]	590 nm absorbance normalized to zero hour (substrate use), 6 hr [1]	590 nm absorbance normalized to zero hour (substrate use), 8 hr [1]	590 nm absorbance normalized to zero hour (substrate use), 9 hr [1]	590 nm absorbance normalized to zero hour (substrate use), 10 hr [1]	590 nm absorbance normalized to zero hour (substrate use), 11 hr [1]	Substrate use, 590 nm absorbance normalized to zero hour, 1 hr [1]	Substrate use, 590 nm absorbance normalized to zero hour, 5 hr [1]	Substrate use, 590 nm absorbance normalized to zero hour, 7 hr [1]	590 nm absorbance normalized to zero hour (substrate use), 1 hr [2]	590 nm absorbance normalized to zero hour (substrate use), 2 hr [2]	590 nm absorbance normalized to zero hour (substrate use), 3 hr [2]	590 nm absorbance normalized to zero hour (substrate use), 4 hr [2]	590 nm absorbance normalized to zero hour (substrate use), 6 hr [2]	590 nm absorbance normalized to zero hour (substrate use), 8 hr [2]	590 nm absorbance normalized to zero hour (substrate use), 9 hr [2]	590 nm absorbance normalized to zero hour (substrate use), 10 hr [2]	other results
COC(=O)[C@@H](C)O [Methyl D-Lactate]	1.36	1.52	2.08	2.04	1.34	2.16	2.39	2.41	2.99	1.36	2.26	2.14	2.10	2.49	2.89	2.64	2.94	3.20	3.46	3.46	590 nm absorbance normalized to zero hour (substrate use), 5 hr [2]: 2.75; 590 nm absorbance normalized to zero hour (substrate use), 7 hr [2]: 3.10; 590 nm absorbance normalized to zero hour (substrate use), 11 hr [2]: 3.61; 590 nm absorbance normalized to zero hour (substrate use), 1 hr [3]: 2.10; 590 nm absorbance normalized to zero hour (substrate use), 2 hr [3]: 2.49; 590 nm absorbance normalized to zero hour (substrate use), 3 hr [3]: 2.89; 590 nm absorbance normalized to zero hour (substrate use), 4 hr [3]: 2.64; 590 nm absorbance normalized to zero hour (substrate use), 5 hr [3]: 2.75; 590 nm absorbance normalized to zero hour (substrate use), 6 hr [3]: 2.94; 590 nm absorbance normalized to zero hour (substrate use), 7 hr [3]: 3.10; 590 nm absorbance normalized to zero hour (substrate use), 8 hr [3]: 3.20; 590 nm absorbance normalized to zero hour (substrate use), 9 hr [3]: 3.46; 590 nm absorbance normalized to zero hour (substrate use), 10 hr [3]: 3.46; 590 nm absorbance normalized to zero hour (substrate use), 11 hr [3]: 3.61
COC(=O)C(C)=O [Methyl Pyruvate]	1.32	1.57	1.25	1.36	0.77	1.65	1.74	1.79	1.76	1.32	1.59	1.51	1.93	2.20	2.60	2.51	2.87	3.03	3.24	3.21	590 nm absorbance normalized to zero hour (substrate use), 5 hr [2]: 2.66; 590 nm absorbance normalized to zero hour (substrate use), 7 hr [2]: 2.99; 590 nm absorbance normalized to zero hour (substrate use), 11 hr [2]: 3.04; 590 nm absorbance normalized to zero hour (substrate use), 1 hr [3]: 1.93; 590 nm absorbance normalized to zero hour (substrate use), 2 hr [3]: 2.20; 590 nm absorbance normalized to zero hour (substrate use), 3 hr [3]: 2.60; 590 nm absorbance normalized to zero hour (substrate use), 4 hr [3]: 2.51; 590 nm absorbance normalized to zero hour (substrate use), 5 hr [3]: 2.66; 590 nm absorbance normalized to zero hour (substrate use), 6 hr [3]: 2.87; 590 nm absorbance normalized to zero hour (substrate use), 7 hr [3]: 2.99; 590 nm absorbance normalized to zero hour (substrate use), 8 hr [3]: 3.03; 590 nm absorbance normalized to zero hour (substrate use), 9 hr [3]: 3.24; 590 nm absorbance normalized to zero hour (substrate use), 10 hr [3]: 3.21; 590 nm absorbance normalized to zero hour (substrate use), 11 hr [3]: 3.04
COC(=O)CCC(=O)O [Mono Methyl Succinate]	1.07	1.14	1.10	1.10	0.53	1.09	1.11	1.11	1.11	1.07	1.13	1.07	1.44	1.71	1.97	2.04	2.33	2.45	2.58	2.55	590 nm absorbance normalized to zero hour (substrate use), 5 hr [2]: 2.16; 590 nm absorbance normalized to zero hour (substrate use), 7 hr [2]: 2.40; 590 nm absorbance normalized to zero hour (substrate use), 11 hr [2]: 2.67; 590 nm absorbance normalized to zero hour (substrate use), 1 hr [3]: 1.44; 590 nm absorbance normalized to zero hour (substrate use), 2 hr [3]: 1.71; 590 nm absorbance normalized to zero hour (substrate use), 3 hr [3]: 1.97; 590 nm absorbance normalized to zero hour (substrate use), 4 hr [3]: 2.04; 590 nm absorbance normalized to zero hour (substrate use), 5 hr [3]: 2.16; 590 nm absorbance normalized to zero hour (substrate use), 6 hr [3]: 2.33; 590 nm absorbance normalized to zero hour (substrate use), 7 hr [3]: 2.40; 590 nm absorbance normalized to zero hour (substrate use), 8 hr [3]: 2.45; 590 nm absorbance normalized to zero hour (substrate use), 9 hr [3]: 2.58; 590 nm absorbance normalized to zero hour (substrate use), 10 hr [3]: 2.55; 590 nm absorbance normalized to zero hour (substrate use), 11 hr [3]: 2.67
CC(=O)N[C@H]1C(O)O[C@H](CO)[C@@H](O)[C@@H]1O (stereo partly drawn) [N-Acetyl-D-Glucosamine]	0.19	0.27	0.32	0.34	0.32	0.48	0.50	0.45	0.44	0.19	0.40	0.46	2.25	3.27	3.85	4.12	5.27	6.03	6.65	6.45	Substrate use, 590 nm absorbance normalized to zero hour, 1 hr [4]: 2.25; Substrate use, 590 nm absorbance normalized to zero hour, 5 hr [4]: 4.99; Substrate use, 590 nm absorbance normalized to zero hour, 7 hr [4]: 5.67; 590 nm absorbance normalized to zero hour (substrate use), 11 hr [2]: 5.53
CC(=O)N[C@@H]1C(O)O[C@H](CO)[C@@H](O)[C@@H]1O (stereo partly drawn) [N-Acetyl-D-Mannosamine]	0.90	0.77	0.71	0.68	0.65	0.63	0.58	0.67	0.66	0.90	0.68	0.61	1.40	1.88	2.13	2.22	2.70	3.09	3.29	3.34	Substrate use, 590 nm absorbance normalized to zero hour, 1 hr [4]: 1.40; Substrate use, 590 nm absorbance normalized to zero hour, 5 hr [4]: 2.60; Substrate use, 590 nm absorbance normalized to zero hour, 7 hr [4]: 2.89; 590 nm absorbance normalized to zero hour (substrate use), 11 hr [2]: 3.55
